This is an account of results in paper PMC4055595, “Pharmacokinetic Compatibility of Ginsenosides and Schisandra Lignans in Shengmai-san: From the Perspective of P-Glycoprotein” (PLoS ONE, 2014).

Like-named read-outs stand apart in the source and are kept apart here.

Series [1] deals with LLC-PK1 cells (lacking P-gp). Description: Uptake (intracellular accumulation) of digoxin and ginsenosides in LLC-PK1 cells. Format: in vitro ADME. How it is done: (§1) LLC-PK1 cells, a cell line lacking P-gp, and the derived cell line L-MDR1, which over-express human MDR1-encoded P-gp, were grown in minimum essential medium with supplements at 37°C, 5% CO2, and 95% humidity. LLC-PK1 and L-MDR1 cells were seeded at a density of 12×10^6 cells per 150-cm^2 flask and grown for 7 days in medium 199 supplemented with 2 mM glutamine, 10% fetal bovine serum, 10 mg/500 mL of streptomycin, and 10,000 IU/500 mL of penicillin. To ensure a constant expression level of transport protein, L-MDR1 cells were grown in the presence of 640 nM vincristine. Cells were grown as monolayer on polycarbonate membrane filters (Transwell; Costar Corporation, Cambridge, MA) as outlined previously. Transepithelial resistance was measured in each well using a Millicell ERS ohmmeter (Millipore, Bedford, MA); wells registering a resistance of 200 ohms or greater, after correcting for the resistance obtained in control blank wells, were used in the transport experiments.
LLC-PK1 and L-MDR1 cells were incubated with SLE (2.0 and 10.0 µg/mL) or verapamil (10 µM) for 1.0 h, and then were washed to discard SLE or verapamil before adding 100 µg/mL of GE. The accumulation of GE lasted for 2 h, and the intracellular concentrations of ginsenosides were measured by LC/MS. All experiments were conducted in triplicate.

Series [2] can be described thus: Rat plasma pharmacokinetics after single-dose vehicle/SLE and digoxin or GE. Format: in vivo, Sprague-Dawley rats. The settings on record: rats; for half-life / AUC / Cmax / AUC(0-inf) / MRT inf / Tmax: female, Sprague-Dawley, rat, plasma, po; for half-life / AUC / Cmax / AUC(0-inf) / MRT inf / Tmax / Cl_F_obs: 2 h later digoxin 0.5 mg/kg or GE 120 mg/kg ig; for half-life: read-out: t1/2 (converted); for AUC(0-inf): read-out: AUCINF_obs; for MRT inf: read-out: MRTINF_obs; for Tmax: read-out: Tmax. How it is done:
This study was carried out in strict accordance with the recommendations in the Guide for the Care and Use of Laboratory Animals of the National Institutes of Health. The protocol was approved by the Committee on the Ethics of Animal Experiments of the China Pharmaceutical University. All surgery was performed under sodium pentobarbital anesthesia, and all efforts were made to minimize suffering. Female healthy Sprague-Dawley rats (200±20 g) were purchased from the Laboratory Animal Center of Peking University Health Science Center (Beijing, PR China) and kept in an environmentally controlled breeding room for at least 3 days before experimentation. The rats were fed with standard laboratory food and water and fasted overnight but with free access to water before the test. To evaluate the effect of single treatment of SLE on the pharmacokinetics of ginsenosides, 24 rats were divided into four groups (group I ∼ group IV) averagely. […] In group II (control group): the rats received a single dose of vehicle (0.5% CMC-Na), and digoxin (0.5 mg/kg) was also given to the rats by intragastric administration. […] In group IV (control group): the rats received a single dose of vehicle (0.5% CMC-Na), and GE (120 mg/kg) was also given to the rats by gavage. […] Plasma was obtained by centrifugation at 5000 g for 10 min and stored at −20°C before analysis. The plasma / cell samples were extracted using a liquid–liquid extraction technique. To each tube containing 100 µL plasma, 10 µL internal standard (digoxin, 1.0 µg/mL) and 1.0 mL of n-butanol were added. The mixture was then vortex-extracted for 2 min, and centrifuged for 10 min at 10,000 g. […] The plasma concentration-time curves of ginsenosides in rats were obtained by plotting the mean plasma concentrations versus time. Pharmacokinetic parameters were calculated using the WinNonlin 6.3 program (Pharsight Inc., Mountain View, CA). The elimination half-life (t 1/2) value was calculated as 0.693/β, where β is the elimination rate constant calculated from the terminal linear portion of the log plasma concentration-time curve. The total areas under the plasma concentration- time curve from time 0 to the last quantifiable time point (AUC0-t) and from time 0 to infinity (AUC0-∞) were calculated using the log trapezoidal rule. [drawing 3] The maximum plasma concentrations (C max) for ginsenosides were obtained by visual inspection of the plasma concentration-time curve, whereas the initial drug concentration (the extrapolated concentration at zero time) of the drug after intravenous injection was calculated by back-extrapolation of the plasma concentration-time curve to the y-axis.

Series [3] deals with LLC-PK1 cells (lacking P-gp). Description: Transport of digoxin and ginsenosides across LLC-PK1 cell monolayers. Format: in vitro ADME. How it is done:
as §1
The LLC-PK1 and L-MDR1 cells were washed with warm Hank's balanced salt solution HBSS (pH 7.4) twice before transport experiment. HBSS containing verapamil (10 µM), SLE (2.0 and 10.0 µg/mL) or blank HBSS (control) was then loaded into both apical and basolateral chambers. After incubation at 37°C for 1.5 h, GE (100 µg/mL) was added to either the apical or basolateral side to evaluate the transport in absorptive and secretive directions, respectively. The cell monolayer was then incubated for another 2 h. Finally, the concentrations of ginsenosides were determined by LC/MS. All experiments were conducted in triplicate.
For the transport assay, the apparent permeability (P app, cm/s) in each direction (A→B and B→A) was calculated as follows, where A is the surface area of the membrane inserts (0.0804 cm^2), C 0 is the initial concentration of the compound applied in the donor compartment (2 µM), and △Q is the amount (micromoles) of compound transported over time △t (5 h = 18,000 s): [drawing 1]
The efflux ratio (ER) was a dimensionless number calculated as the ratio of the apparent permeability in the B→A direction divided by the apparent permeability in the A→B direction. [drawing 2]

Where [4] appears, read: single-dose SLE 500 mg/kg vs vehicle, GE ig.

For orientation: AUC means the area under the concentration-time curve, a measure of exposure. Read a high AUC as more exposure. As usually defined, the Cmax is the peak of the concentration-time curve. The term Tmax denotes the time at which the peak concentration occurs. In the case of `CC(C)=CCC[C@](C)(O[C@@H]1O[C@H](CO)[C@@H](O)[C@H](O)[C@H]1O)[C@H]1CC[C@]2(C)[C@@H]1[C@H](O)C[C@@H]1[C@@]3(C)CC[C@H](O[C@@H]4O[C@H](CO)[C@@H](O)[C@H](O)[C@H]4O[C@@H]4O[C@H](CO)[C@@H](O)[C@H](O)[C@H]4O)C(C)(C)[C@@H]3CC[C@]12C` [Rd, ginsenoside Rd], in series [1] (10 µM verapamil), the “Effect of verapamil on intracellular accumulation” value is recorded as “no significant difference”. Moreover, the “Effect of SLE on intracellular accumulation” value in series [1] (SLE 2.0 and 10.0 µg/mL) is reported as “no significant difference”. For the same molecule, the half-life in series [2] (control: single vehicle (0.5% sodium CMC)) was 75.4 ± 42.7 h. Besides, in series [2] (control: single vehicle), the AUC was 5350 ± 1400 ng·h/mL, the Cmax amounted to 237 ± 79 ng/mL, the AUC(0-inf) came to 7410 ± 2180 ng·h/mL and the MRT inf turned out to be 21.6 ± 49 h. Further, in series [2] (control: single vehicle), the Tmax was 7.5 ± 1 h and the Cl_F_obs came out at 0.014 ± 0.003 L/h. In series [2] (single SLE 500 mg/kg ig), the AUC was 7960 ± 2000 ng·h/mL, the concentration peaked (Cmax) at 227 ± 57.8 ng/mL, the AUC(0-inf) was found to be 9040 ± 2200 ng·h/mL and the MRT inf turned out to be 25.1 ± 7.45 h. In series [2] (single SLE 500 mg/kg ig), the time to peak (Tmax) is 7.5 ± 1 h, the half-life is 21.8 ± 6.78 h and the Cl_F_obs was determined as 0.011 ± 0.003 L/h. Also, in series [2] (setting [4]), the “Effect of SLE treatment on Cmax” value is recorded as “not dramatically changed” and the “Increase of AUC (AUC0-∞) by coadministration of SLE” value was 1.86 fold. Moreover, the “Effect of verapamil on transport (efflux ratio)” value in series [3] (10 µM verapamil) is “No transport difference”. In addition, in series [3] (SLE 2.0 and 10.0 µg/mL), the “Effect of SLE on transport (AP→BL, BL→AP)” value is given as “No transport difference”.
